Experiment [1] has as its system trypsin-like GAS protease. Description: Degradation of IL-8 by JS95 supernatant (Western blot, ELISA). Format: biochemical, Group A Streptococcus (GAS). The note with it: for IL-8 degradation (ELISA): JS95 supernatant pretreated 30 min 37° C.: 0.3 μM aprotinin, 1 mM benzamidine, 100 μg/ml soybean trypsin inhibitor, FIG. 15A. How it is done: […] was grown in the absence and presence of SilCR (50 μg/ml). IL-8 was incubated with the indicated supernatant fractions and then subjected to 18% SDS-PAGE. The separated protein bands were electro-transferred to a nitrocellulose membrane. Anti-IL-8 antibody and a secondary antibody conjugated to horseradish peroxidase were used to detect IL-8. The number of the lane represents incubation of IL-8 with: 1, DMEM+FCS (control); 2, JS95 supernatant; 3, JS95 supernatant grown in the presence of SilCR; 4, JS95 supernatant, pretreated with pefabloc SC; 5, supernatant of JS95 grown in the absence of SilCR, then 50 μg/ml of SilCR was added to the degradation assay.
15A The column numbers represent the ELISA results after incubation of IL-8 with: 1, DMEM+FCS (control); and the supernatants of: 2, JS95; 3, JS95 grown in the presence of SilCR; 4, JS95 pretreated with aprotenin; 5, JS95 pretreated with soybean trypsin inhibitor; 6, JS95 pretreated with benzamidine. The background of the ELISA assay (0.08±0.004) was subtracted from the shown results. The data represent the mean ± SD, of three separate experiments.
(§1) A. Cell culture of JS95 strain was grown in THY to an OD600 of 0.2. To determine the effect of SilCR on chemokine proteolysis, the culture was split into two equal fractions, of which one received SilCR (25 μg/ml). Both fractions were further incubated until they reached an OD600 of 0.3. Bacteria were washed twice with sterile PBS and once with DMEM containing 10% FCS. The washed pellets were re-suspended in DMEM supplemented with FCS to their original volumes. SilCR (50 μg/ml) was added to the fraction that was grown in the presence of SilCR, and the two fractions were further incubated for 1 h at 37° C. Supernatants were collected after centrifugation. The proteolysis reaction contained: 0.08 ml of each supernatant, 100 ng of recombinant human IL-8/CXCL8 (R&D systems, Minneapolis, Minn.) or 30 ng of recombinant murine MIP-2 (R& D systems, Minneapolis, Minn.), 20 mM MOPS pH=7.2 in a final volume of 0.1 ml. The reaction was conducted for 1 h at 37° C., and stopped by boiling for 1 min.
(§2) B. For testing protease inhibitors, the supernatants were pre-incubated with the inhibitor for 30 min at 37° C., followed by the proteolysis reaction. The following concentrations of inhibitors were used: 4 mM pefabloc SC; 0.5 mM PMSF; 0.3 μM aprotinin; 1 mM benzamidine; 100 μg/ml soybean trypsin inhibitor (STI).
C. Proteolysis of chemokines was determined by ELISA and Dot-blot. IL-8 content was quantified by ELISA using the Quantikine kit for determination of human IL-8 (R&D Systems, Minneapolis, Minn.) according to the manufacturer's instructions.
For orientation: Immunoblotting shows a protein as a band on a membrane.

For experiment [2], the system named is trypsin-like GAS protease. The experiment can be described thus: Degradation of MIP-2 by JS95 supernatant (dot blot). The format is biochemical, Group A Streptococcus (GAS). The following applies: pretreatment of JS95 supernatant: 4 mM pefabloc SC; 0.3 μM aprotinin; 1 mM benzamidine; 100 μg/ml STI. How it is done: 15B. The dots in the control panel represent MIP-2 that was incubated in DMEM+FCS, in the absence of JS95 supernatant and spotted at the following doses: 30, 15, 7.5, 3.75 and 1.87 ng (from left to right). The dots in the lower panel were generated in the same way, except that MIP-2 was previously incubated with JS95 supernatant.
as §1, §2
Samples of 50 μl from the proteolysis reaction were diluted in PBS to a final volume of 0.5 ml and passed through a 96-wells dot-blotter onto a 0.2-μm-nitrocellulose membrane. Detection of MIP-2 was performed using anti-mouse MIP-2 polyclonal antibodies (R&D Systems Minneapolis, Minn.) followed by addition of anti-mouse IgG-HRP antibody. Dots were detected using the SuperSignal West Pico chemiluminescent detection kit (Pierce, Rockford, Ill.).

`N=C(N)c1ccccc1` [benzamidine]: in experiment [1], the “IL-8 degradation (ELISA)” value is reported as “completely abrogated”. Besides, the MIP-2 degradation entry in experiment [2] was “blocked”.

For the molecule `Cl.NCCc1ccc(S(=O)(=O)F)cc1` [pefabloc SC], the “IL-8 degradation (Western blot)” value in experiment [1] (JS95 supernatant pretreated 30 min 37° C. with 4 mM pefabloc SC, FIG. 14) was “almost completely abolished”. In experiment [2], the MIP-2 degradation result is “blocked”.

Regarding aprotinin, the “IL-8 degradation (ELISA)” value in experiment [1] is “completely inhibited”. Besides, the MIP-2 degradation entry in experiment [2] is listed as “blocked”.

Regarding soybean trypsin inhibitor, the “IL-8 degradation (ELISA)” value in experiment [1] was “completely abrogated”. Moreover, the MIP-2 degradation entry in experiment [2] is recorded as “blocked”.

The record behind these values is patent US20070071773A1, “Compositions and methods for the treatment and prophylaxis of infections caused by gram positive bacteria” (priority 2002, published 2007).
